Results from US20220323406A1, “METHODS AND COMPOSITIONS FOR DIFFERENTIATING STEM CELLS” (Massachusetts Institute of Technology, priority 2019, published 2022).

Assays:
[1] = system: ENR+CD organoids (ISC to Paneth cell differentiation); assay: Secondary (validation) screen: LYZ.S CCh-stimulated lysozyme secretion, 2.5-D 384-well ENR+CD organoids; type: cell-based, mouse; conditions: 6-day ENR+CD, vs ENR+CD+DMSO
Procedure: (§1) Drugs were tested at a narrowed dose range around each treatment's identified optimal dose from the primary screen (4× below, 2× above and below).
(§2) High-throughput screening.
(§3) Secondary lysozyme secretion assay screen. Confirmatory secondary screening with primary hits was performed using the above 384-well plate method. The screen was conducted with 4-plate replicates with a base media of ENR+CD. Media was supplemented with compound at day 0 and day 3 (n=8 well replicates per dose) at four different doses: two-fold above, two-fold below, and four-fold below the optimal final dose for each respective treatment. Additionally, each plate carried a large number of ENR+DMSO or ENR+CD+DMSO (vehicle) control wells (n=100 for ATP, and n=25 for LYZ.NS and LYZ.S) for robust normalization. ATP, non-stimulated lysozyme activity and CCh-stimulated lysozyme activity was again measured and the collected data was again processed in a custom R-script, per primary screen with slight modification. Values were log10 transformed, and a plate-wise FC was calculated for each well based on the median value of ENR+CD+DMSO (vehicle) control wells to normalize plate to plate variability.

[2] = system: ENR+CD organoids (ISC to Paneth cell differentiation); assay: Primary screen: CCh-stimulated lysozyme secretion LYZ.S, 2.5-D 384-well ENR+CD organoid differentiation; type: cell-based, mouse; conditions: primary screen, FC vs plate median
Description: as §2

[3] = system: ENR+CD organoids (ISC to Paneth cell differentiation); assay: Secondary (validation) screen: LYZ.NS basal lysozyme secretion, 2.5-D 384-well ENR+CD organoids; type: cell-based, mouse; conditions: for Dose.FC.LYZ.NS / Z.LYZ.NS / repSSMD.LYZ.NS: 6-day ENR+CD, vs ENR+CD+DMSO
Procedure: as §1, §2, §3

ENR+CD organoids [4] = assay: Secondary (validation) screen: ATP (CTG) assay, 2.5-D 384-well ENR+CD organoids; type: cell-based, mouse; conditions: 6-day ENR+CD, vs ENR+CD+DMSO
Procedure: as §1, §2, §3

[5] = system: ENR+CD organoids (ISC to Paneth cell differentiation); assay: Primary screen: basal (non-stimulated) lysozyme secretion LYZ.NS, 2.5-D 384-well ENR+CD organoid differentiation; type: cell-based, mouse; conditions: primary screen; for Z.LYZ.NS: standard z score; for Dose.FC.LYZ.NS: FC vs plate median
Description: as §2

ENR+CD organoids [6] = assay: Primary screen: ATP (CellTiter-Glo 3D, CTG) cell number/viability, 2.5-D 384-well ENR+CD organoids; conditions: primary screen; for Z.CTG: standard z score; for Dose.FC.CTG: FC vs plate median;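 on all read-outs here: compounds given at plating and again on day 3 over a 6-day differentiation from ENR+CV stem-cell-enriched precursors, ATP measured on day 6, plate median as control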

Compound: CCc1cncnc1N1CCN(Cc2nc3ccc(C(F)(F)F)cc3[nH]2)CC1 [PF-4708671]
- Dose.FC.LYZ.S ([1]; 0.50 uM): −0.040 log2 fold change
- Z.LYZ.S ([1]; 0.50 uM): −0.305
- repSSMD.LYZ.S ([1]; 0.50 uM): −0.496
- Dose.FC.LYZ.S ([1]; 1.00 uM): −0.245 log2 fold change
- Z.LYZ.S ([1]; 1.00 uM): −1.879
- repSSMD.LYZ.S ([1]; 1.00 uM): −2.451
- Dose.FC.LYZ.S ([1]; 2.00 uM): −0.272 log2 fold change
- Z.LYZ.S ([1]; 2.00 uM): −2.088
- repSSMD.LYZ.S ([1]; 2.00 uM): −3.604
- Dose.FC.LYZ.S ([1]; 4.00 uM): −0.042 log2 fold change
- Z.LYZ.S ([1]; 4.00 uM): −0.320
- repSSMD.LYZ.S ([1]; 4.00 uM): −0.503
- Dose.FC.LYZ.S ([2]; dose 0.08 uM): 0.136 log2 fold change
- Dose.FC.LYZ.S ([2]; dose 0.40 uM): 0.172 log2 fold change
- Dose.FC.LYZ.S ([2]; dose 2.00 uM): 0.209 log2 fold change
- Dose.FC.LYZ.S ([2]; dose 10.00 uM): −0.024 log2 fold change
- Dose.FC.LYZ.NS ([3]; 0.50 uM): 0.005 log2 fold change
- Z.LYZ.NS ([3]; 0.50 uM): 0.039
- repSSMD.LYZ.NS ([3]; 0.50 uM): 0.058
- Dose.FC.LYZ.NS ([3]; 1.00 uM): −0.200 log2 fold change
- Z.LYZ.NS ([3]; 1.00 uM): −1.600
- repSSMD.LYZ.NS ([3]; 1.00 uM): −1.909
- Dose.FC.LYZ.NS ([3]; 2.00 uM): −0.221 log2 fold change
- Z.LYZ.NS ([3]; 2.00 uM): −1.764
- repSSMD.LYZ.NS ([3]; 2.00 uM): −2.529
- Dose.FC.LYZ.NS ([3]; 4.00 uM): 0.015 log2 fold change
- Z.LYZ.NS ([3]; 4.00 uM): 0.120
- repSSMD.LYZ.NS ([3]; 4.00 uM): 0.171
- Dose.FC.CTG (ENR+CD organoids [4]; 0.50 uM): −0.049 log2 fold change
- Z.CTG (ENR+CD organoids [4]; 0.50 uM): −0.443
- repSSMD.CTG (ENR+CD organoids [4]; 0.50 uM): −0.324
- Dose.FC.CTG (ENR+CD organoids [4]; 1.00 uM): −0.039 log2 fold change
- Z.CTG (ENR+CD organoids [4]; 1.00 uM): −0.354
- repSSMD.CTG (ENR+CD organoids [4]; 1.00 uM): −0.284
- Dose.FC.CTG (ENR+CD organoids [4]; 2.00 uM): −0.076 log2 fold change
- Z.CTG (ENR+CD organoids [4]; 2.00 uM): −0.684
- repSSMD.CTG (ENR+CD organoids [4]; 2.00 uM): −0.558
- Dose.FC.CTG (ENR+CD organoids [4]; 4.00 uM): 0.067 log2 fold change
- Z.CTG (ENR+CD organoids [4]; 4.00 uM): 0.601
- repSSMD.CTG (ENR+CD organoids [4]; 4.00 uM): 0.414
- Z.LYZ.NS ([5]; dose 0.08 uM): 0.654
- Z.LYZ.NS ([5]; dose 0.40 uM): 1.059
- Z.LYZ.NS ([5]; dose 2.00 uM): 1.721
- Z.LYZ.NS ([5]; dose 10.00 uM): 0.297
- Dose.FC.LYZ.NS ([5]; dose 0.08 uM): 0.075 log2 fold change
- Dose.FC.LYZ.NS ([5]; dose 0.40 uM): 0.122 log2 fold change
- Dose.FC.LYZ.NS ([5]; dose 2.00 uM): 0.198 log2 fold change
- Dose.FC.LYZ.NS ([5]; dose 10.00 uM): 0.034 log2 fold change
- Z.CTG (ENR+CD organoids [6]; dose 0.08 uM): 0.623
- Z.CTG (ENR+CD organoids [6]; dose 0.40 uM): 0.640
- Z.CTG (ENR+CD organoids [6]; dose 2.00 uM): 0.721
- Z.CTG (ENR+CD organoids [6]; dose 10.00 uM): −0.766
- Dose.FC.CTG (ENR+CD organoids [6]; dose 0.08 uM): 0.261 log2 fold change
- Dose.FC.CTG (ENR+CD organoids [6]; dose 0.40 uM): 0.268 log2 fold change
- Dose.FC.CTG (ENR+CD organoids [6]; dose 2.00 uM): 0.302 log2 fold change
- Dose.FC.CTG (ENR+CD organoids [6]; dose 10.00 uM): −0.321 log2 fold change

Compound: Cc1[nH]c(/C=C2\C(=O)Nc3ccc(S(=O)(=O)Cc4c(Cl)cccc4Cl)cc32)c(C)c1C(=O)N1CCC[C@@H]1CN1CCCC1 [PHA-665752]
- Dose.FC.LYZ.S ([1]; 0.10 uM): 0.133 log2 fold change
- Z.LYZ.S ([1]; 0.10 uM): 1.019
- repSSMD.LYZ.S ([1]; 0.10 uM): 1.586
- Dose.FC.LYZ.S ([1]; 0.20 uM): −0.089 log2 fold change
- Z.LYZ.S ([1]; 0.20 uM): −0.680
- repSSMD.LYZ.S ([1]; 0.20 uM): −1.201
- Dose.FC.LYZ.S ([1]; 0.40 uM): 0.076 log2 fold change
- Z.LYZ.S ([1]; 0.40 uM): 0.585
- repSSMD.LYZ.S ([1]; 0.40 uM): 0.906
- Dose.FC.LYZ.S ([1]; 0.80 uM): 0.048 log2 fold change
- Z.LYZ.S ([1]; 0.80 uM): 0.365
- repSSMD.LYZ.S ([1]; 0.80 uM): 0.542
- Dose.FC.LYZ.S ([2]; dose 0.08 uM): 0.163 log2 fold change
- Dose.FC.LYZ.S ([2]; dose 0.40 uM): 0.373 log2 fold change
- Dose.FC.LYZ.S ([2]; dose 2.00 uM): 0.143 log2 fold change
- Dose.FC.LYZ.S ([2]; dose 10.00 uM): −0.165 log2 fold change
- Dose.FC.LYZ.NS ([3]; 0.10 uM): 0.210 log2 fold change
- Z.LYZ.NS ([3]; 0.10 uM): 1.675
- repSSMD.LYZ.NS ([3]; 0.10 uM): 2.400
- Dose.FC.LYZ.NS ([3]; 0.20 uM): −0.027 log2 fold change
- Z.LYZ.NS ([3]; 0.20 uM): −0.219
- repSSMD.LYZ.NS ([3]; 0.20 uM): −0.350
- Dose.FC.LYZ.NS ([3]; 0.40 uM): 0.099 log2 fold change
- Z.LYZ.NS ([3]; 0.40 uM): 0.789
- repSSMD.LYZ.NS ([3]; 0.40 uM): 0.942
- Dose.FC.LYZ.NS ([3]; 0.80 uM): 0.090 log2 fold change
- Z.LYZ.NS ([3]; 0.80 uM): 0.722
- repSSMD.LYZ.NS ([3]; 0.80 uM): 1.142
- validated doses in secondary screen (SSMD above cutoff in both LYZ assays) ([3]; LYZ.NS and LYZ.S): multiple validated doses
- Dose.FC.CTG (ENR+CD organoids [4]; 0.10 uM): 0.100 log2 fold change
- Z.CTG (ENR+CD organoids [4]; 0.10 uM): 0.898
- repSSMD.CTG (ENR+CD organoids [4]; 0.10 uM): 0.755
- Dose.FC.CTG (ENR+CD organoids [4]; 0.20 uM): −0.032 log2 fold change
- Z.CTG (ENR+CD organoids [4]; 0.20 uM): −0.288
- repSSMD.CTG (ENR+CD organoids [4]; 0.20 uM): −0.244
- Dose.FC.CTG (ENR+CD organoids [4]; 0.40 uM): 0.303 log2 fold change
- Z.CTG (ENR+CD organoids [4]; 0.40 uM): 2.735
- repSSMD.CTG (ENR+CD organoids [4]; 0.40 uM): 1.415
- Dose.FC.CTG (ENR+CD organoids [4]; 0.80 uM): 0.185 log2 fold change
- Z.CTG (ENR+CD organoids [4]; 0.80 uM): 1.664
- repSSMD.CTG (ENR+CD organoids [4]; 0.80 uM): 1.023
- Z.LYZ.NS ([5]; dose 0.08 uM): 1.586
- Z.LYZ.NS ([5]; dose 0.40 uM): 2.368
- Z.LYZ.NS ([5]; dose 2.00 uM): 1.591
- Z.LYZ.NS ([5]; dose 10.00 uM): −0.931
- Dose.FC.LYZ.NS ([5]; dose 0.08 uM): 0.182 log2 fold change
- Dose.FC.LYZ.NS ([5]; dose 0.40 uM): 0.272 log2 fold change
- Dose.FC.LYZ.NS ([5]; dose 2.00 uM): 0.183 log2 fold change
- Dose.FC.LYZ.NS ([5]; dose 10.00 uM): −0.107 log2 fold change
- Z.CTG (ENR+CD organoids [6]; dose 0.08 uM): 1.126
- Z.CTG (ENR+CD organoids [6]; dose 0.40 uM): 1.482
- Z.CTG (ENR+CD organoids [6]; dose 2.00 uM): 1.339
- Z.CTG (ENR+CD organoids [6]; dose 10.00 uM): 0.057
- Dose.FC.CTG (ENR+CD organoids [6]; dose 0.08 uM): 0.471 log2 fold change
- Dose.FC.CTG (ENR+CD organoids [6]; dose 0.40 uM): 0.620 log2 fold change
- Dose.FC.CTG (ENR+CD organoids [6]; dose 2.00 uM): 0.561 log2 fold change
- Dose.FC.CTG (ENR+CD organoids [6]; dose 10.00 uM): 0.024 log2 fold change
